Test results: US10744214B2, “Method of diagnosing and/or monitoring therapy of atherosclerosis” (STC.UNM, priority 2015, dated 2020)

Key:
[1] = In vitro stability of radiolabeled DANBIRT in fetal bovine serum and 0.9% saline; assay type: in vitro ADME; conditions: FBS and 0.9% saline, 4 hours
Method: Incubation of [^68Ga] Ga-DANBIRT with Fetal Bovine Serum (FBS) (Atlanta Biologicals, S11150) and 0.9% saline solution was performed in vitro stability analysis. Triplicate samples were drawn from radiolabeled stock and kept incubated at 37° C. until time of analysis. ITLC was performed once at each time point and HPLC assessment was performed in triplicates at baseline, 5, 10, 30, 60, 120 and 240 minutes of incubation. The mean incorporation yield and radiochemical purity were calculated from sample results. Following methods by Poria et al methods were modified for use in a Ultra-Performance Liquid Chromatography (UPLC) using an Acquity UPLC BEH C-18 1.7 μm column (2.1×50 mm) (Waters Corporation, 186002350). UPLC gradient with flow rate is described in FIG. 14.

LFA-1 receptor [2] = test: Radioisotopic dilution / competitive leukocyte binding assay; set-up: species or system Rat; conditions: serum, RBC and PBMC samples
Method: (§1) Radioisotopic dilution methods were performed with log-fold serial dilutions at concentrations of 1:1, 1:10, 1:100 and 1:1000 radiolabeled DANBIRT. Rat whole blood was collected and incubated for 10 minutes with [^111In] In-DANBIRT. Leukocyte isolation was performed for neutrophil and PBMC separations post-incubation with radiolabeled DANBIRT (specific activity 625 mCi/pM). Cytospin 2 (Shandon 2,59900002) with double-funnel and white filter (Simport, 930941126) was used for clustered cell differentials identification methods. Cytospin samples were spread in Superfrost Plus slides (VWR, 48311-703) and fixed with […]. Wright-Giemsa horizontal staining protocol was performed according to manufacturer's package insert instructions (Sigma Aldrich, SLBN4704V). Cell morphology, differentials and sample purity were assessed using a light microscope at 40× objective (Olympus BX51).

LFA-1 receptor [3] = biological target: T1, LFA-1 receptor (Rattus norvegicus, UniProt F1LP44); test: as above; conditions: compared to neutrophil sample, p<0.05
T1 construct: endogenous in cells; host or cells: neutrophils and PBMCs from whole blood of male Sprague Dawley rats
T1 sequence (F1LP44 24-1161): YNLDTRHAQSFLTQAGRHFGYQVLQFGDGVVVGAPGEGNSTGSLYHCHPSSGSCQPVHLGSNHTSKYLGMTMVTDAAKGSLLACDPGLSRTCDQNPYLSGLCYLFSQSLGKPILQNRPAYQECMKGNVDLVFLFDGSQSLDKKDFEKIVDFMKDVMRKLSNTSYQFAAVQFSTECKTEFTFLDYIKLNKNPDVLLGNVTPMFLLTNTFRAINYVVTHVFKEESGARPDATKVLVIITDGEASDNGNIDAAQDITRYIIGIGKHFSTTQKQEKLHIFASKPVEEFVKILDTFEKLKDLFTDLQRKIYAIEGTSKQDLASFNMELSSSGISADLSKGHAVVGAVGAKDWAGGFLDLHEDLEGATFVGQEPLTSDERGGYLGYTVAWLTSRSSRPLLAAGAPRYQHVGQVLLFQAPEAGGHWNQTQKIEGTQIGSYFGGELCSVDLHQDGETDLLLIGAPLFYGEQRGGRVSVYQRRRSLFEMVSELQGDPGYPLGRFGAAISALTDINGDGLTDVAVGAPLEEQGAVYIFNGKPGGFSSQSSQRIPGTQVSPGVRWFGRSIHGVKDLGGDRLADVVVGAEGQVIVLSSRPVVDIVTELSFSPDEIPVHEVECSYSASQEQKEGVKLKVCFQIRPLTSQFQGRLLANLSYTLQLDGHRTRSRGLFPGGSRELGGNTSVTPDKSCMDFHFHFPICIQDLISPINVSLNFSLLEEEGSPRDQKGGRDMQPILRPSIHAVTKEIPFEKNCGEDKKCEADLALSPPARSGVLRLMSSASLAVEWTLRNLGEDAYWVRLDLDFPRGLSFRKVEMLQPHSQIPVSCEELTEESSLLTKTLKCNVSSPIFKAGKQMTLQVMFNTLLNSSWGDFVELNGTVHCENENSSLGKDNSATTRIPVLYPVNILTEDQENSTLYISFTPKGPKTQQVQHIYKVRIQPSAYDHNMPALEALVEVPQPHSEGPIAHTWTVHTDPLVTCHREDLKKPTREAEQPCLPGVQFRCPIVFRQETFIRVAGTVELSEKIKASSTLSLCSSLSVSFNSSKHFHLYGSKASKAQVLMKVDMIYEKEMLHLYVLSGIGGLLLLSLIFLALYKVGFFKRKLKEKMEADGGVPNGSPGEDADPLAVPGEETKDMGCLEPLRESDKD
Method: as §1

Question: With `C[C@]1(Cc2ccc(Br)cc2)C(=O)N(c2cc(Cl)cc(Cl)c2)C(=O)N1CCCCNC(=O)CN1CCN2CCN3CCN(CC1)CC(=O)[O][111In]([O]C(=O)C2)[O]C(=O)C3` [[^111In] In-DANBIRT] as the molecule, how does the stability on incubation [1] read?
Answer: The stability on incubation was “maintained throughout 4 hours of incubation”.

Question: What about the “decrease of initial uptake after each log fold dilution concentration” value (LFA-1 receptor [2]) of the same molecule?
Answer: The value was 50%.

Question: What about the “saturation in PBMCs at different dilution concentrations” value (LFA-1 receptor [3]) of the same molecule?
Answer: The value was “did not evidence any saturation levels”.
